We go through seven molecules from patent US12728132B2, “Inhibitors of the peptidyl-prolyl cis/trans isomerase (PIN1), combinations and uses thereof” (DANA-FARBER CANCER INSTITUTE, INC., priority 2021, dated 2026).

*1 amine or outer side, *2 acyl side, *3 side chain or, on linkers, in order; H or OH if unused. Where a SMILES comes first, the peptide text is derived from it. Where no end group is shown, it is not given here. [ ]: non-standard residue; d: D form. The star is where a group is joined. Pro(13C,15N) = carbon and nitrogen isotope labeled proline, O=[13C]([13C@@H]1[13CH2][13CH2][13CH2][15N]1[*:1])[*:2]; pS = N[C@@H](COP(=O)(O)O)C(=O)O; Cbz = O=C(OCc1ccccc1)*

One test deals with Pin1 in MDA-MB-231 cells. The test can be described thus: Immunoblot of Pin1 inhibitor-induced Pin1 degradation with proteasome inhibitors. The format is cell-based, human. The settings on record: MDA-MB-231, AApin 3 days; 10 μM MG132 or 1 μM bortezomib last 12 hrs. The method, then: For IB analysis, cells were lysed in RIPA buffer (Thermo) supplemented with protease inhibitors (Sigma) and phosphatase inhibitors (Sigma). Protein concentrations were measured using Protein Assay Dye Reagent (Bio-Rad) and a Beckman Coulter. Equal amounts of protein were resolved by SDS-PAGE and probed with indicated antibodies. For immunoprecipitation analysis, cells were lysed in IP lysis buffer (Thermo) and pre-cleared by Mouse IgG-Agarose (Sigma) for 1 hour at 4° C. and then incubated with anti-Flag M2-Agarose (Sigma) for 2 hours at 4° C. The agaroses were washed four times with IP lysis buffer and boiled in standard Laemmli-Buffer with 5% final concentration of β-mercaptoethanol before being resolved by SDS-PAGE and immunoblotted with indicated antibodies.
Exploration of the intrinsic upstream regulators that could affect Pin1 protein stability was then sought.

Test [1] has as its system K14cre; Brca1^+/−; p53^−/−-TNBC. The test can be described thus: Survival until mandatory euthanasia, syngeneic FVB/N TNBC model with or without anti-PD-L1. Particulars: syngeneic FVB/N mice, time to mandatory euthanasia (tumor size 2 cm). The format is in vivo. The source says:
All animal experiments were approved by the IACUC of the Beth Israel Deaconess Medical Center. Maximum permitted the longest dimension of tumors was 20 mm. Pieces from breast tumors generated in K14cre; p53^f/f; Brca1^f/f or K14cre; p53^wt/f; Brca1^wt/f female mice were transplanted into the mammary pad of 6-week-old FVB female mice. For survival studies, treatments were started once the tumors reached 3-5 mm in diameter and continued until mice were symptomatic or tumors reached 20 mm in any direction, at which point mice were euthanized. For time point analysis, mice were sacrificed two weeks post-treatment initiation. […] Tumor sizes were measured every three days by caliper after implantation and tumor volume was calculated by the modified ellipsoidal formula: tumor volume=½length×width^2. […]
A total of 86 FVB/N mice were grafted syngeneically with the K14cre; Brca1^+/−; p53″/tumors. […] Time to mandatory euthanasia (tumor size 2 cm) was recorded. […] Statistical significance was calculated using a two-sided log-rank test.

The subject of test [2] is K14cre; p53^f/f; Brca1^f/f tumors. The test can be described thus: Survival and tumor growth, Brca1-deficient immunocompetent TNBC mouse model. The format is in vivo. The settings on record: mice bearing K14cre, n=6 per group. The text has this:
(§1) All animal experiments were approved by the IACUC of the Beth Israel Deaconess Medical Center. Maximum permitted the longest dimension of tumors was 20 mm. Pieces from breast tumors generated in K14cre; p53^f/f; Brca1^f/f or K14cre; p53^wt/f; Brca1^wt/f female mice were transplanted into the mammary pad of 6-week-old FVB female mice. For survival studies, treatments were started once the tumors reached 3-5 mm in diameter and continued until mice were symptomatic or tumors reached 20 mm in any direction, at which point mice were euthanized. For time point analysis, mice were sacrificed two weeks post-treatment initiation. Control and anti-PD-L1 antibody (clone 29E.2A3) treatments were conducted by intraperitoneal injection with a dosage of 200 μg per mouse every three days. sulfopin treatment was given by intraperitoneal injection with a dosage of 60 mg/kg (7 days/week), abemaciclib treatment was given by oral gavage with a dosage of 100 mg/kg (7 days/week), or drug combinations in which each compound was administered at the same dose and scheduled as a single agent. Tumor sizes were measured every three days by caliper after implantation and tumor volume was calculated by the modified ellipsoidal formula: tumor volume=½length×width^2. The investigators were not blinded to allocation during experiments and outcome assessment.

Test [3] concerns K14cre; p53^wt/f; Brca1^wt/f tumors. The test can be described thus: Survival and tumor growth, Brca1-proficient immunocompetent TNBC mouse model. The format is in vivo. Particulars: mice bearing K14cre, n=10 per group.
Text: as §1

Test [4] concerns K14cre; p53^wt/f, Brca1^wt/f BT3 tumors. The test can be described thus: Survival and tumor growth, FVB mice bearing BT3 tumors. The format is in vivo. Particulars: n=10 mice per group.
Text: as §1

The subject of another test is TNBC. Particulars: single agents; cited from earlier work.
For test [5], the system named is TNBC patient-derived xenograft (TM00096). The test can be described thus: In vivo therapy for TNBC patient-derived xenografts (PDOX). The settings on record: Rb-proficient TNBC PDOX, nude mice. Further details: species or system human tumor in BALB/c nude mice. The method, then: All animal experiments were approved by the IACUC of the Beth Israel Deaconess Medical Center. Triple-negative BC patient-derived xenograft (TM00096) was purchased from Jackson Laboratories. Pieces from PDOX tumors were subcutaneously implanted into flank of 6-week-old BALB/c female nude mice. Tumor sizes were measured every three days by caliper after implantation and tumor volume was calculated by the modified ellipsoidal formula: tumor volume=½length×width^2. Treatments were started once the tumors reached 5 mm in diameter and continued until tumors reached 15 mm in any direction. […] Sulfopin treatment was given by intraperitoneal injection with a dosage of 40 mg/kg (dissolved solution: 5% DMSO in D5W, 7 days/week), palbociclib treatment was given by oral gavage with a dosage of 100 mg/kg (dissolved solution: saline, 5 days/week), abemaciclib treatment was given by oral gavage with a dosage of 100 mg/kg (dissolved solution: 0.5% CMC-Na, 5 days/week), or drug combinations in which each compound was administered at the same dose and scheduled as a single agent. […]
PDOX tumor tissue sections were boiled in 10 mM sodium citrate (pH 6.0), for antigen retrieval after deparaffinization. […] Slides were scanned at least three different representative areas at 20× magnification using BZ-X800 fluorescence microscope (KEYENCE).
For orientation: Xenograft models place foreign cells or tissue in a host animal.

For test [6], the system named is Cdh1 binding to Pin1 WW and PPIase domains. The test can be described thus: GST-Pin1 pull-down of HA-Cdh1 after sulfopin treatment. The format is cell-based, human. Particulars: MCF-7 cells expressing HA-Cdh1, sulfopin 3 days, 10 μM MG132 last 12 hrs. The method, then: GST pull-down was performed as described previously (Lee et al., Mol Cell 2011; 42:147-59). Briefly, cells were stably expressing indicated proteins and lysed in pull-down buffer (20 mM Tris pH 8.0, 150 mM NaCl, 1 mM EDTA pH 8.0, 0.5% Nonidet-P40). The cell extracts were pre-cleared by glutathione agarose beads and incubated with 1 μM GST or GST fusion proteins overnight at 4° C. Protein complexes were recovered on glutathione agarose beads for 2 hours at 4° C., washed four to six times with pull-down buffer and eluted by boiling in SDS-containing sample buffer. Bound proteins were resolved by SDS-PAGE.
To further define the molecular mechanism of Cdh1-mediated Pin1 degradation, the interaction of Pin1 and Cdh1 was examined using GST pull-down assays using GST-Pin1 point mutations. IB analysis of GST pull-down precipitates derived from 293T cells transfected with HA-Cdh1 and GST-Pin1 mutants as indicated for 36 hrs. The graphs were one representative experiment out of three independent experiments. […] FIG. 1K and FIG. 1L show the shift of Cdh1 binding from the WW− to the PPIase domain of Pin1 upon inhibition of PPIase activity. […] Bottom graphs quantification of IB analysis for bound HA-Cdh1. […]

Another test concerns MCF-7 cells. The test can be described thus: Time-lapse single-cell tracking with APC-degron reporter. The format is cell-based, human. The settings on record: single living cells tracked, asynchronous MCF-7. The procedure:
MCF-7 cells were stably expressed with mCherry-Geminin (1-110) and a histone H2B-Turquoise. Cells were then plated 24 hours before starting the microscope acquisition. Pin1 inhibitors or CDK4/6 inhibitors were added in the medium and imaged using a Nikon Eclipse TE-2000 inverted microscope with a 10× Plan Apo objective and a Hammamatsu Orca ER camera, equipped with environmental chamber controlling temperature, atmosphere (5% CO2) and humidity. Images were acquired every 30 min using the MetaMorph Software. For each condition filmed, 4 different fields were selected.
p53Cinema single cell analysis package was used for semiautomatic tracking of individual cells in live cell imaging datasets as described previously (Reyes et al., Mol Cell 2018; 71:581-91 e5). Tracking data were then used to quantify intensity of fluorescent reporters from background subtracted images by averaging 10 pixels within the cell nucleus. Cells were tracked using only information about a constitutively expressed nuclear marker, such as H2B-Turquoise, and were thus blind to the dynamics of molecular players of interest, such as mCherry-Geminin. Only cells that remained within the field of view throughout the entire duration of the experiment were considered for downstream analyses. […] S/G2 durations were calculated by the time that cells spent in S/G2 phase after drugs were added.

The target in test [7] is T1, Pin1 (Homo sapiens, UniProt Q13526). The test can be described thus: Proline isomerization study by 13C-HSQC NMR. The format is biochemical. The text has this:
Commercially synthesized specific ^13C, ^15N-P164 labeled Cdh1 phosphopeptide was used to facilitate direct quantitative determination of the cis and trans proline populations. The strong ^13C-HSQC peaks originating from Pro164 can be easily distinguished from the weak peaks due to ~1% natural abundance ^13C present in the rest of the peptide. […] Based on the interpretation of the chemical shifts, the major peaks were assigned as trans isomer and the minor peaks were assigned as cis isomer (Schubert et al. J Biomol NMR 24, 149-154 (2002)). The proline resonance assignments were further confirmed using a 2D-^13C-HSQCTOCSY experiment while no attempts were made to stereospecifically assign proton resonances, thus the assignment of HB2 and HB3, HG2 and HG3, and HD2 and HD3 are interchangeable. 58 μM free peptide and its complex with a 4-fold molar excess of Pin1, dissolved in the above-mentioned NMR buffer were used to estimate the cis and trans isomer populations at 25° C.

For test [8], the target named is T1, Pin1. The test can be described thus: NMR titration of Cdh1 phosphopeptide with Pin1. The format is binding. Particulars: NMR chemical shift perturbation, pH 6.6, 25° C. The method, then: All NMR experiments were acquired on Bruker NEO 600 MHz spectrometer equipped with a TCI cryoprobe at 25° C. 0.1 mM ^13C, ^15N-enriched Pin1 sample dissolved in pH 6.6 buffer made-up of 20 mM Potassium Phosphate, 100 mM NaSO4 and 10% D2O was used to study peptide interaction. NMR assignments of Pin1 were taken from the BMRB database (accession number 27579) and confirmed using 3D-HNCA experiment. Synthetic peptides Cdh1-pS163 (comprised of Cdh1 residues 161-183 with phosphorylated Ser163 and isotope labeled Pro164, LR (pS)P(^13C, ^15N) […]) (SEQ ID NO: 27). were purchased from Pepmic. A systematic titration between Pin1 and phosphopeptide was performed by acquiring 2D-HSQC spectra. The absolute average chemical shift perturbation was calculated by using an equation, [(A8H2+ (A8N/5) 2)/2]½, available in software NMRFAM Sparky version 1.414.

T1 sequence (Q13526 whole entry): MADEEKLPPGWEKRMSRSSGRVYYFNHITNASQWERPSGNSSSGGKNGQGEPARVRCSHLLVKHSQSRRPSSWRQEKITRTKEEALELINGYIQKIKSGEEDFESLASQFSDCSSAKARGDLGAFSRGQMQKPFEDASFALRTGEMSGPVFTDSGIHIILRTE

With `CC(C)C[C@@H](C=O)NC(=O)[C@H](CC(C)C)NC(=O)[C@H](CC(C)C)NC(=O)OCc1ccccc1` [MG132] (Cbz-Leu-Leu-Leu-aldehyde), the “Pin1 inhibitor-induced Pin1 degradation” value with Pin1 in MDA-MB-231 cells is “rescued”.

As for `CCN1CCN(Cc2ccc(Nc3ncc(F)c(-c4cc(F)c5nc(C)n(C(C)C)c5c4)n3)nc2)CC1` [abemaciclib], the median survival in [1] is 31 days; in test [2], 31.5 days; in test [3], 25 days.

`CC(C)C[C@H](NC(=O)[C@H](Cc1ccccc1)NC(=O)c1cnccn1)B(O)O` [bortezomib]: the “Pin1 inhibitor-induced Pin1 degradation” value with Pin1 in MDA-MB-231 cells is on record as “rescued”.

`CC(=O)c1c(C)c2cnc(Nc3ccc(N4CCNCC4)cn3)nc2n(C2CCCC2)c1=O` [palbociclib]: the median survival in [4] came to 21 days.

For `CN(C)C(=O)c1cc2cnc(Nc3ccc(N4CCNCC4)cn3)nc2n1C1CCCC1` [ribociclib], the “single agent activity in TNBC” value in the test on TNBC was “neither palbociclib nor ribociclib has activity in TNBC”.

Take `CC(C)(C)CN(C(=O)CCl)C1CCS(=O)(=O)C1` (centres unmarked) [sulfopin]: the tumor growth entry in test [5] was “limited single agent activity”. Besides, the median survival in [1] was 22.5 days; in [2], 27 days; in test [4] it was 21 days; in [3] it was 25 days. Further, the “binding mode of Cdh1 to Pin1” value in test [6] was “shift from binding to the WW domain to the PPIase domain”. In addition, in the test with MCF-7 cells, the S/G2 duration result is “strikingly prolonged S/G2 phases”.

Consider “Cdh1-pS163: Cdh1 residues 161-183 with phosphorylated Ser163 and isotope labeled Pro164 (SEQ ID NO: 27) (LR[pS][Pro(13C,15N)]RKPTRKISKIPFKVLDAPE)”, for which the cis-P164 isomer population with Pin1 [7] (1:4 complex with Pin1, 25° C.) is on record as 14.2%; in the test with Pin1 [7] (free peptide, 58 μM, 25° C.), 7%. In addition, the “binding to the Pin1 WW domain” value with Pin1 [8] is reported as “moderately strong affinity”.
